For 21 compounds, EC50 and CC50 results are on record in ChEMBL document CHEMBL1156829 (Proc Natl Acad Sci U S A, 2008).

pEC50: −log10 of the molar value.

The subject of data set [1] is Plasmodium falciparum. The experiment in a line: NOVARTIS: Inhibition of Plasmodium falciparum W2 (drug-resistant) proliferation in erythrocyte-based infection assay. It counts as functional, organism-based. The conditions noted are these: Plasmodium falciparum, W2; read-out: EC50.
In data set [2] the test system is Plasmodium falciparum. Briefly: NOVARTIS: Inhibition of Plasmodium falciparum 3D7 (drug-susceptible) proliferation in erythrocyte-based infection assay. The conditions noted are these: Plasmodium falciparum, 3D7. It counts as functional, organism-based.
Data set [3] can be described thus: NOVARTIS: Cytotoxicity against human hepatocellular carcinoma cell line (Huh7). It counts as toxicity, cell-based, Huh-7. The note with it: Huh7 cells (hepatocellular carcinoma cell line).

For orientation: pEC50 means the EC50 on a negative log10 scale, so that one unit is a factor of ten. As usually defined, the CC50 is the concentration giving 50% cytotoxicity. A higher CC50 goes with lower toxicity to the cells. As for `COc1cccc(Nc2nc(NCCO)c3ccccc3n2)c1`, the pEC50 in the data set with Plasmodium falciparum [1] was 6.51; in the data set on Plasmodium falciparum [2], 6.94. Besides, it took 21.1 µM to reach half-maximal cytotoxicity in data set [3] (CC50).

For the compound `COc1ccc(C2=C(c3ccc(OC)cc3)C3(c4ccccc4)C(=O)C2(c2ccccc2)C2C(=O)N(c4ccc(C)cc4)C(=O)C23)cc1` (stereo not drawn), the pEC50 was 5.83 in the data set on Plasmodium falciparum [1] and under 4.90 in the data set on Plasmodium falciparum [2]. The compound further returned a CC50 in data set [3] of over 100 µM.

As to `CC(C)Cc1ccc(C=CC(=O)NC2CC2)cc1`, the results for the pEC50 in the data set with Plasmodium falciparum [1] and with Plasmodium falciparum [2] were 5.83 and 5.94, respectively. In data set [3], this compound had a CC50 of over 100 µM.

For the compound `COc1ccc(NC(=O)N(CCCNS(=O)(=O)c2ccc([N+](=O)[O-])cc2)c2ccc(Oc3ccccc3)cc2)cc1`, the results for the pEC50 in the data set with Plasmodium falciparum [1] and in the data set with Plasmodium falciparum [2] were 6.94 and 6.13, respectively. For the same compound, in data set [3], the CC50 is over 7.77 µM.

Turning to `COc1ccccc1N1CCN(c2ccc(NC(=O)c3ccc(F)cc3)cc2C(=O)N2CCCC2)CC1`, the pEC50 was 6.83 in the data set with Plasmodium falciparum [1] and under 5.90 in the data set on Plasmodium falciparum [2]. Further, the CC50 in data set [3] was over 10 µM.

`COC(=O)[C@@H]1C[C@@H](NC(=O)c2ccc(OC)cc2OC)CN1Cc1cccc2ccccc12`: the pEC50 with Plasmodium falciparum [1] was 5.83; in the data set with Plasmodium falciparum [2], 5.33. The compound also gave a CC50 in data set [3] of over 100 µM.

With `CCOc1ccc(NC(=O)C(C)CSc2nc3ccc(NC(=O)CC)cc3s2)cc1` (stereo not drawn), the pEC50 with Plasmodium falciparum [1] is 5.83; in the data set with Plasmodium falciparum [2], under 4.90. Besides, the CC50 in data set [3] was over 100 µM.

Consider `Cc1cc(C)n(-c2ccc(NC(=O)C3CCN(Cc4ccncc4)CC3)cc2)n1`, for which the pEC50 is 5.83 with Plasmodium falciparum [1] and 5.89 in the data set with Plasmodium falciparum [2]. For the same compound, the CC50 in data set [3] was over 100 µM.

Turning to `COc1cc(C2c3[nH]c4ccccc4c3C[C@@H]3C(=O)N(CCc4ccccc4)CC(=O)N23)cc(OC)c1OC` (stereo partly drawn), the negative-log EC50 (pEC50) in the data set on Plasmodium falciparum [1] was 6.79; with Plasmodium falciparum [2], 6.30. This compound showed a CC50 in data set [3] of over 10.8 µM.

On to `CC(=O)N1c2ccc(C)cc2C(C)(c2ccccc2)CC1(C)C` (stereo not drawn), for which the pEC50 with Plasmodium falciparum [1] is 6.17; with Plasmodium falciparum [2], 6.11. This compound came in with a half-maximal cytotoxic concentration (CC50) in data set [3] of 45.4 µM.

For the compound `c1cc2c(cc1Nc1c3c(nc4nncn14)CCC3)OCCO2`, the figures for the pEC50 in the data set with Plasmodium falciparum [1] and in the data set with Plasmodium falciparum [2] were 5.83 and 5.53, respectively. The same compound returned a CC50 in data set [3] of over 100 µM.

Regarding `O=C(Nc1ccc(NC(=O)c2ccc(C3=NCCCN3)cc2)cc1)Nc1ccc(C2=NCCCN2)cc1`, the pEC50 in the data set with Plasmodium falciparum [1] is 6.83; in the data set with Plasmodium falciparum [2] it was 6.94. In data set [3], this compound registered a CC50 of over 10 µM.

As to `c1ccc(C[n+]2ccc(-c3nc4ccccc4s3)cc2)cc1`, the pEC50 was 5.83 in the data set on Plasmodium falciparum [1] and 5.73 with Plasmodium falciparum [2]. The compound further returned a CC50 in data set [3] of over 100 µM.

For the compound `CCN(CC)c1ccc(N=Cc2ccccc2[N+](=O)[O-])cc1`, the results for the pEC50 with Plasmodium falciparum [1] and in the data set on Plasmodium falciparum [2] were 6.39 and 6.24, respectively. This compound also gave a half-maximal cytotoxic concentration (CC50) in data set [3] of 27.7 µM.

For `CCOc1ccc2[nH]c(=O)c(CN(CCN(CC)CC)C(=S)NCCCN(CC)CC)cc2c1`, the negative-log EC50 (pEC50) in the data set with Plasmodium falciparum [1] was 5.83; with Plasmodium falciparum [2], 5.25. In data set [3], the CC50 was over 100 µM.

In the case of `CC1CCN(Cc2c(O)ccc3cc(-c4nc5ccccc5s4)c(=O)oc23)CC1`, the pEC50 in the data set on Plasmodium falciparum [1] is 5.83; in the data set on Plasmodium falciparum [2] it was under 4.90. Also, the CC50 in data set [3] was over 100 µM.

On to `CCCC(=O)N(C/C=C/c1ccccc1OC)CCN1CCN(C(=O)Nc2cccc(C)c2)CC1`, for which the pEC50 with Plasmodium falciparum [1] is 6.83; in the data set on Plasmodium falciparum [2] it was under 5.90. In addition, in data set [3], the CC50 was over 10 µM.

Take `Cc1ccc(C(C(=O)NC2CCCCC2)N(C(=O)c2ccc(-c3ccccc3)[nH]2)c2ccc(C3CCCCC3)cc2)o1` (stereo not drawn): the negative logarithm of the EC50 (pEC50) was 5.83 with Plasmodium falciparum [1] and 5.93 in the data set with Plasmodium falciparum [2]. The same compound returned a CC50 in data set [3] of over 100 µM.

As for `O=C(NCCCCNc1ccnc2cc(Cl)ccc12)C1CCCCC1`, the pEC50 was 6.70 with Plasmodium falciparum [1] and 6.51 in the data set on Plasmodium falciparum [2]. Besides, the CC50 in data set [3] is over 13.3 µM.

In the case of `Cc1ccn2c(NC(C)(C)CC(C)(C)C)c(-c3ccccc3OS(=O)(=O)CC34CCC(CC3=O)C4(C)C)nc2c1` (stereo not drawn), the pEC50 with Plasmodium falciparum [1] was 6.83; in the data set with Plasmodium falciparum [2], 5.87. The CC50 in data set [3] is over 10 µM.

For the compound `Cc1cn2c3ccccc3n(CCN3CCCC3)c2n1`, the results for the pEC50 in the data set with Plasmodium falciparum [1] and in the data set with Plasmodium falciparum [2] were 6.05 and 6.00, respectively. The compound also came in with a CC50 in data set [3] of 60.5 µM.
